Entries after “also recorded” stand apart in the source; their conditions may differ. Values belong to the compound of their own block, whether it stands above or below them.
Assays:
[1] = in vivo; cited from earlier work
[2] = in vivo; cited from earlier work; remark: listed apart in the source
human ACC2 = biological target: T1, human ACC2 (Homo sapiens, UniProt O00763); experiment: Human ACC enzymatic activity assay (ACC2); assay type: biochemical; conditions: purified human ACC2; read-out: EA-CoA hACC 2 IC50
T1 construct: purchased BPS Bioscience
T1 sequence (O00763 whole entry): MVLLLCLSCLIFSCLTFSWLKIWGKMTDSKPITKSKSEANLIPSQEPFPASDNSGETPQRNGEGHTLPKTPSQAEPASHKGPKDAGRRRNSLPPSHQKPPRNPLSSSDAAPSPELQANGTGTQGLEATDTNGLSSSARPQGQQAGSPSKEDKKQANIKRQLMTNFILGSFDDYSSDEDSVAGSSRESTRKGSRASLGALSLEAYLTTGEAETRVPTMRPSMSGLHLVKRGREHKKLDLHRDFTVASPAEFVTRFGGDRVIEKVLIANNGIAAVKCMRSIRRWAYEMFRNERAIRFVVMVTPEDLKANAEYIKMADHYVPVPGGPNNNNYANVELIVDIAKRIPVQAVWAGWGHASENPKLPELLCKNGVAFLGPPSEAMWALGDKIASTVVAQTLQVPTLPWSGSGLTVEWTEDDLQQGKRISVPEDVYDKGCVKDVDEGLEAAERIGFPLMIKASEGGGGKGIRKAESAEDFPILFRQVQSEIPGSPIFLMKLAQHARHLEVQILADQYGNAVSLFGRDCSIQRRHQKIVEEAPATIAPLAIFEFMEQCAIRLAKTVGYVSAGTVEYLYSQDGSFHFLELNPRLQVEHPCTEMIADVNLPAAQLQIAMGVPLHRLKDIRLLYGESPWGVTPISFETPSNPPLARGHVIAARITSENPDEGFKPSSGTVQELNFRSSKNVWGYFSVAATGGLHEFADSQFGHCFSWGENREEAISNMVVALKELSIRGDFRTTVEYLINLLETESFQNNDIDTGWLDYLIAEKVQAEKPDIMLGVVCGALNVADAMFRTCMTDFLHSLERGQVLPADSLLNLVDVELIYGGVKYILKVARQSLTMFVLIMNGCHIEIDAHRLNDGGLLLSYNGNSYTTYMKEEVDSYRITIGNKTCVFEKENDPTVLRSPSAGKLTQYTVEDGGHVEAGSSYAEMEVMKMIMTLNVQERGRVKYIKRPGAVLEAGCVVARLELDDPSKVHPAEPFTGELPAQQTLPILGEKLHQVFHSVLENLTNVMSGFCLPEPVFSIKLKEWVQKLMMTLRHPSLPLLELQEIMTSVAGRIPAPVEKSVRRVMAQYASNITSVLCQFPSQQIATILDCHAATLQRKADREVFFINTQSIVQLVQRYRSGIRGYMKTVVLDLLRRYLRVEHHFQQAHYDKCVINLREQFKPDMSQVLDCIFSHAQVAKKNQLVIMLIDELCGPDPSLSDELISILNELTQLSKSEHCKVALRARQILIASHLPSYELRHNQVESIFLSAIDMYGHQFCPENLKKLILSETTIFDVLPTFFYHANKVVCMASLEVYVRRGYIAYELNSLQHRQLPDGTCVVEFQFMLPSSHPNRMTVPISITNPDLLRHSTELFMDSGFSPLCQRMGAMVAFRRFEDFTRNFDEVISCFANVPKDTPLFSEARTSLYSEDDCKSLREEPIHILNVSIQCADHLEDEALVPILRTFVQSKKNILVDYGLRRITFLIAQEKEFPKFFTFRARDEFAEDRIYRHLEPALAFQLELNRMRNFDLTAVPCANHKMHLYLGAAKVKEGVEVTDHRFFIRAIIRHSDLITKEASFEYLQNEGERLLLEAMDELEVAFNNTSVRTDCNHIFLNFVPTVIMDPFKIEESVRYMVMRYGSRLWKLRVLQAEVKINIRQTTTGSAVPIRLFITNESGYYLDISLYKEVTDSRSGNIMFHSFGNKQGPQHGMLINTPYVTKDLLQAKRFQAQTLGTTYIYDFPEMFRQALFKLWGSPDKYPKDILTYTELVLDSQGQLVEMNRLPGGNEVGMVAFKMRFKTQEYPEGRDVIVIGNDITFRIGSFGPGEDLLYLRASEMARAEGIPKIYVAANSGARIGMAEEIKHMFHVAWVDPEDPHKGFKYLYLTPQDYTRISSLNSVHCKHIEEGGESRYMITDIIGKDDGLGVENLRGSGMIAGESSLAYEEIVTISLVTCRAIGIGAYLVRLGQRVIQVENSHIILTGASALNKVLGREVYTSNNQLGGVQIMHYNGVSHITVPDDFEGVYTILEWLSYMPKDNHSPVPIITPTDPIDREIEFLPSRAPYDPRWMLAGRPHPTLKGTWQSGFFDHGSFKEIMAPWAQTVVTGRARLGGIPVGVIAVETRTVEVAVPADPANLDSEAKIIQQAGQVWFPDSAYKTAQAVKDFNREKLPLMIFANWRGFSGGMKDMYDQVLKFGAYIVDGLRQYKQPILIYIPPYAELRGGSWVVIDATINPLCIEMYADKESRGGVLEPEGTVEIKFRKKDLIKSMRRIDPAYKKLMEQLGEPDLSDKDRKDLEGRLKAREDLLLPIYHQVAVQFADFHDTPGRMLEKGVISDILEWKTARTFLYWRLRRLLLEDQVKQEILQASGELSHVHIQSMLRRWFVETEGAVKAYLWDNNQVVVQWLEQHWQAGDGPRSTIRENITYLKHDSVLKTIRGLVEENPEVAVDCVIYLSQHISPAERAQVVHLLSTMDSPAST
Procedure: (§1) Human ACC enzymatic activity assays were performed by using purified human ACC1 and ACC2 proteins (BPS Bioscience). ACC1 and ACC2 proteins were diluted in 24.5 μL reaction buffer (50 mM HEPES pH 7.5, 10 mM MgCl2, 2.0 mM DTT, 4.0 mM ATP, 15 mM ^13C-NaHCO3, 0.75 mg/mL BSA, 0.5 mM sodium citrate), and final concentrations of ACC1 and ACC2 were 0.4 μg/mL and 0.48 μg/mL. For each reaction, 0.5 μL of serial diluted compounds were prepared in DMSO in duplicate or triplicate and mixed with the above 24.5 μL reaction mixtures with ACC proteins at 37° C. for 10 min. Meanwhile, 25 μL of reaction buffer plus acetyl-CoA (final concentration: 5 μM) was prepared freshly and added to the above 25 μL mixture to initiate the reaction. After incubation at 37° C. for 1-2 hours, 100 μl ice-cold 10% TCA with malonyl-^13C3-CoA (final concentration: 40 nM, Sigma-Aldrich) was added to terminate the reaction. For LC-MS/MS analysis, 300 μL quenching buffer (acetonitrile:methanol=1:1, 20 μM carbutamide as internal standard) was added to each tube and mixed well. Samples were then centrifuged at 14,000 rpm for 10 min (Eppendorf) and supernatants were loaded onto LC-MS/MS for quantitation of […] (Gao et al., Journal of chromatography B, Analytical technologies in the biomedical and life sciences 853, 303-313 (2007)).
(§2) Shimadzu LC system was used for sample analysis consisting of system controller (Shimadzu CBM-20A), autosampler (Shimadzu SIL-20A), pump A and B (Shimadzu LC-20AD), column oven (Shimadzu CTO-20A), and analytical column (Phenomenex Gemini 5u C18 11A, 100×2 mm). LC was running at 200 μL/min in the binary gradient mode with mobile phase A (5 mM Ammonium Acetate and 5 mM DMBA in water (1,3-Dimethylbutylamine)) and B (methanol). The samples were analyzed on an AB Sciex QTrap4000 LC-MS/MS triple quadrupole mass spectrometer (Applied Biosystems). Malonyl-CoA and malonyl-13C-CoA were monitored in positive ion mode following MRM transitions at 854.2/347.1 and 855.1/246.1, respectively. The product and internal standard were coeluted to the mass spectrometer in 3 s with 50% H2O, 25% MeCN, 25% acetone, and 5 mM ammonium acetate. Ion chromatograms were integrated using the Analyst 1.5.2 software. Peak area ratios were compared against a standard curve and final cellular concentration of malonyl-CoA or production rate of malonyl-13C-CoA was calculated as pmoles/mg protein per minute.

human ACC1 = biological target: T2, human ACC1 (Homo sapiens, UniProt Q13085); experiment: Human ACC enzymatic activity assay (ACC1); assay type: biochemical; conditions: purified human ACC1; read-out: EA-CoA hACC 1 IC50
T2 construct: purchased BPS Bioscience
Procedure: as §1, §2

[3] = test system: liver triglycerides (TG) in C57BL/6J mice; experiment: Chronic treatment for reducing liver triglycerides in C57BL/6J mice; assay type: in vivo, mouse; conditions: male C57BL/6J mice; 20 mg per kilogram body weight in 0.5% methylcellulose, oral gavage once per day for 2 weeks; FIG. 1, vs vehicle
Procedure: Male C57BL/6J mice (Jackson Laboratory) at around 9 weeks of age were treated with vehicle (0.5% methylcellulose or PEG400) or Example 14 (30 mg per kilogram body weight, dosing solution prepared in PEG400) and Example 20 (20 mg per kilogram body weight, dosing solution prepared in 0.5% methylcellulose) by oral gavage at ˜9:00 am, once per day for 2 weeks. Concentrations of Example 14 and Example 20 were 15 mg/ml and 2 mg/ml, respectively. The dosing volumes of Example 14 and Example 20 were 2 ml per kilogram body weight and 10 ml per kilogram body weight, respectively. After 14-day treatment, animals were euthanized in CO2 at 2 hours post dose and liver was frozen and kept on dry ice. Liver TG was measured by extracting lipids with chloroform:methanol 2:1 (v/v) followed by quantitation with Infinity™ Triglycerides Reagent (Thermo Scientific).

[4] = test system: T3, Mouse ACC (ACC protein purified from liver); experiment: Mouse ACC enzymatic activity assay; assay type: biochemical; conditions: read-out: EA-CoA mACC IC50
T3 construct: ACC protein was purified by taking advantage of the biotinylation in the carboxylase domain
Procedure: ACC protein was purified by taking advantage of the biotinylation in the carboxylase domain. Male C57BL/6J mice (Jackson Laboratory) at 8-12 weeks of age were euthanized by using CO2 inhalation method and liver was immediately frozen on dry ice. To 100 mg liver was added 1 mL ice-cold tissue lysis buffer (20 mM Tris-HCl pH 7.5, 150 mM NaCl, 1 mM Na2EDTA, 1 mM EGTA, 1% Triton, 2.5 mM sodium pyrophosphate, 1 mM 3-glycerophosphate, 1 mM Na3VO4, 1 μg/mL leupeptin, 1 tablet of protease inhibitor cocktail (Roche) per 10 mL lysis buffer) followed by homogenization on ice with Power Gen 125 homogenizer (Fisher Scientific). After 30 min incubation on ice, tissue lysate was passed through a 10 mL syringe with 18½ G needle for 10 times to shear DNA. The lysate was then subject to 17.5%-35% saturated ammonium sulfate precipitation by adding 880 mg ammonium sulfate powder (Sigma) to 10 mL liver lysate in 10 min with stirring on ice. Sample was centrifuged at 14,000 rpm (Eppendorf) at 4° C. for 10 min and supernatant was saved for further precipitation by adding 880 mg ammonium sulfate powder to 10 ml supernatant in 10 min with stirring on ice. Sample was centrifuged at 14,000 rpm at 4° C. for 10 min. Supernatant was discarded and pellet was dissolved in 10 mL sample buffer (100 mM Tris-HCl, pH 7.5, 1 mM EDTA, 0.1 mM DTT, 0.5 M NaCl, and 5% glycerol). The sample was then added with 1 mL of Strep Mag beads slurry (Genscript) and rotated at 4° C. for 1 hour. Supernatant was discarded and beads were washed with sample buffer for 3 times. Protein was then eluted by adding 10 mL of 2 mM biotin (Promega) prepared in sample buffer. The eluate was then dialyzed at 4° C. for 1 hour by using Slide-A-Lyzer™ Dialysis Cassettes 10K MWCO (Thermo Fisher Scientific) against 3 changes of 200 mL dialysis buffer (50 mM HEPES, pH 7.5, 0.1 mM DTT, 1.0 mM EDTA, and 10% glycerol). Total protein concentration was then quantitated by using BCA protein assay kit (Pierce).
For ACC enzymatic activity assay, 1 μL serial diluted compounds prepared in DMSO in duplicate were mixed with 8 μL dialyzed sample at 37° C. for 10 min. Ninety one L of reaction buffer (50 mM HEPES pH 7.5, 10 mM MgCl2, 2.0 mM DTT, 0.5 mM acetyl-CoA, 4.0 mM ATP, 15 mM ^13C-NaHCO3, 0.75 mg/mL BSA, 0.5 mM sodium citrate) was added to the tube and mixed thoroughly. After incubation at 37° C. for 1 hour, 300 μl ice-cold quenching buffer (acetonitrile:methanol=1:1, 20 μM carbutamide as internal standard) was added to each tube and mixed well to terminate the reaction. Samples were centrifuged at 14,000 rpm for 10 min (Eppendorf) and supernatant was loaded onto LC-MS/MS for quantitation of malonyl-^13C-CoA (Gao et al., Journal of chromatography B, Analytical technologies in the biomedical and life sciences 853, 303-313 (2007)).
as §2

Human sebocytes [5] = experiment: Lipogenesis of human sebocytes; assay type: cell-based; conditions: 96 hours, nile red, read-out: LG-Sebo IC50
Procedure: Human sebocytes (Celprogen) were grown in collagen-coated 96-well culture microplate (White/Clear bottom, Coming BioCoat) with growth media till 100% confluency. Culture media was changed to growth media plus 100 μM arachidonic acid (Sigma) and 10 μM rosiglitazone (Tocris) with compounds prepared in DMSO (1:1000 dilution in growth media). Cells were treated with compounds for 96 hours with media containing compounds changed after 48 hours. Upon completion of treatment, cells were washed with 200 μL Phosphate Buffered Saline (PBS) and then fixed by adding 100 μL 4% formaldehyde (Sigma) and incubated at room temperature for 1 hour. Cells were then washed 3 times with PBS. Microplate was stained with 100 μL nile red solution prepared in PBS (2 mg/mL, 1:400 dilution) by incubating at 37° C. for 1 hour and then washed 3 times with PBS. The fluorescence was read at Ex 492 nm and Em 595 nm (TECAN SpectrofluorPlus). Effect of compounds on lipogenesis in sebocytes was calculated by % of DMSO vehicle control.

Human sebocytes [6] = experiment: Cellular levels of malonyl-CoA in human sebocytes; assay type: cell-based; conditions: 0.5 h, 30 min incubation, read-out: Malonyl-CoA in Sebo IC50
Procedure: as §2
Human sebocytes (Celprogen) were grown in growth media (DMEM with 4.5 g/L glucose, 0.584 g/L L-glutamine (Sigma), 100 units/mL of penicillin and 100 μg/mL of streptomycin (Gibco), 10% fetal bovine serum (Gibco)) at 37° C. in a humidified water jacketed incubator (Forma Scientific) supplemented with 5% CO2 till 100% confluency. Cells grown in 152 cm^2 cell culture dish (Corning) were trypsinized with 0.25% trypsin-EDTA (Gibco), centrifuged at 800 rpm for 10 min (Eppendorf) and resuspended in 4 mL growth media. To 1 μL serial diluted compounds in DMSO, 99 μL cells (around 0.5 million cells suspended in growth media) were added and mixed well followed by incubation in cell culture incubator for 30 min. Cells were then centrifuged at 800 rpm for 10 min and 70 μL 10% trichloroacetic acid was added to each well to lyse the cells and precipitate proteins. Cellular levels of malonyl-CoA were quantitated by LC-MS/MS.

3T3-L1 adipocytes = experiment: Lipogenesis of 3T3-L1 adipocytes; assay type: cell-based; conditions: Mus musculus, TG readout, read-out: LG-3T3 IC50
Procedure: 3T3-L1 fibroblast cells (Zen-Bio) were grown in 96-well culture microplate (Corning) with growth media to around 90-100% confluency. Culture media was changed to differentiation media (growth media supplemented with 3-Isobutyl-1-Methylxanthine 500 μM, Dexamethasone 1 μM, insulin 10 μg/mL, and rosiglitazone 2 μM) plus serially diluted compounds prepared in DMSO (1:1000 dilution). After incubation for 2 days, media was changed to maintenance media (growth media supplemented with insulin 10 μg/mL) plus serially diluted compounds prepared in DMSO (1:1000 dilution) for around 1 week with media changed every 2 days. Upon completion of the treatment, culture media are discarded and 200 μL 0.01% SDS was added to each well and shaken for 1 hour to lyse the cells. Cell lysates were then transferred to 400 μL Folch's solution (chloroform: methanol=2:1) and mixed well. After centrifuge at 2,000 rpm for 20 min, 200 μL of the lower organic phase was transferred to a plate with 10 μL sample buffer (chloroform:Triton-100=3:1). Samples were blown dried under nitrogen and 200 μL triglyceride (TG) quantification reagent (Thermo Fisher Scientific) was added, mixed, and incubated at 37° C. for 30 min. TG concentration was determined by reading absorbance at 535 nm (Dynex MRX^e Magellan Biosciences) and calculated from standard curve.

Human sebocytes [7] = experiment: Proliferation of human sebocytes; assay type: cell-based; conditions: 24 hours, MTT, read-out: AP-Sebo IC50
Procedure: Human sebocytes (Celprogen) and keratinocytes (ATCC) were grown in 96-well culture microplate (Coming) with growth media to around 50% confluency. Media was changed to growth media mixed with serially diluted compounds in DMSO (1:1000 dilution). After treatment for 24 hours, media was changed to 100 μL phenol red free DMEM and cell numbers were quantitated by using Vybrant® MTT Cell Proliferation Assay Kit (Molecular Probes). Ten μL of 12 mM MTT stock solution was added to each well and the microplate was incubated at 37° C. for 4 hours. Then 100 μL of the SDS-HCl solution was added to each well and mixed thoroughly using a pipette. The microplate was incubated at 37° C. for 4 hours in a cell culture incubator. The microplate was mixed again using a pipette and absorbance was read at 570 nm (Dynex MRX^e Magellan Biosciences). Effect of compounds on proliferation of human keratinocytes was calculated by % of DMSO vehicle control.

SMILES: CCCCCCCCCCCCCCOc1ccc(C(=O)OCC(=O)N(C)CC(=O)OCC)o1 [olumacostat glasaretil]
Primary endpoints in phase III study [1]: did not meet its primary endpoints | Phase II data [2]: positive

IC50 (human ACC2): 152 nM | IC50 (human ACC1): 148 nM
SMILES: COc1cc(C(=O)N2CCC3(CC2)Cc2ccc(-c4cncc(C(=O)O)c4)cc2C(=O)O3)nc2c(C3CC3)cccc12 [Example 20, 5-(1′-(8-cyclopropyl-4-methoxyquinoline-2-carbonyl)-1-oxospiro[isochroman-3,4′-piperidin]-7-yl)nicotinic acid]
Liver TG [3]: reduced liver triglycerides; also recorded: reduced liver TG

SMILES: COc1cc(C(=O)N2CCC3(CC2)Cc2ccc(C(C)C)cc2C(=O)O3)cc2c(OC)cccc12 [Example 1, 1′-(4,8-dimethoxy-2-naphthoyl)-7-isopropylspiro[isochroman-3,4′-piperidin]-1-one]
IC50 [4]: 3.7 nM | IC50 (Human sebocytes [5]): 10 nM | IC50 (Human sebocytes [6]): 41.5 nM | IC50 (3T3-L1 adipocytes): 1.3 nM | IC50 (Human sebocytes [7]): 93.3 nM
